Reference: patent US8003801B2 (The Scripps Research Institute, priority 2005, dated 2011)
Several values for one entry are separate records, joined by “and”; a condition that tells them apart may be missing. Identical values can stand only once. Entries after “also recorded” stand apart in the source; their conditions may differ. Like-named read-outs stand apart in the source and are kept apart here.

Legend:
[1] = system: KB-31 human epidermoid cancer cell line; assay: 72 hour growth-inhibition (cytotoxicity) assay, KB-31 cells; format: cell-based; settings: for IC50: Homo sapiens
[2] = system: 1A9 human ovarian cancer cell line; assay: 72 hour growth-inhibition (cytotoxicity) assay, 1A9 cells; format: cell-based; settings: for IC50: Homo sapiens, 1A9; for RAEpoB (relative activity), 1A9: ratio of IC50 of EpoB to IC50 of the tested compound in the concurrent assay
[3] = system: KB-8511, Taxol-resistant (Pgp-overexpression) KB cell line; settings: human, 72 h
Protocol: (§1) In addition, further cytotoxicity studies were carried out using a pair of drug-sensitive parental human epidermoid carcinoma cells (KB-31) and its Taxol™-resistant Pgp-overexpressing subline (KB-5811).

[4] = system: 1A9/PTX10, Taxol-resistant 1A9 cell line (β270 Phe→Val); assay: 72 hour growth-inhibition (cytotoxicity) assay, 1A9/PTX10 cells; format: cell-based, human; settings: for IC50: Homo sapiens, 1A9/ptx-10; for RAEpoB (relative activity), 1A9/PTX10: ratio of IC50 of EpoB to IC50 of the tested compound in the concurrent assay; for RRp (relative resistance), 1A9/PTX10: IC50 of 1A9/PTX10 divided by IC50 of the parental cell line 1A9
[5] = system: 1A9/A8, EpoA-resistant 1A9 cell line (β274 Thr→Ile); assay: 72 hour growth-inhibition (cytotoxicity) assay, 1A9/A8 cells; format: cell-based, human; settings: for IC50: Homo sapiens, 1A9; for RAEpoB (relative activity), 1A9/A8: ratio of IC50 of EpoB to IC50 of the tested compound in the concurrent assay; for RRp (relative resistance), 1A9/A8: IC50 of 1A9/A8 divided by IC50 of the parental cell line
[6] = system: A2780/AD10, drug-resistant clone of human ovarian carcinoma A2780 overexpressing P-glycoprotein; assay: 72 hour growth-inhibition (cytotoxicity) assay, A2780/AD10 cells; format: cell-based; settings: for IC50: Homo sapiens, A2780, 72 hour growth inhibition, sulforhodamine-B staining, mean of 3-5 experiments ± SEM; for RRp (relative resistance), A2780/AD10: IC50 of A2780/AD10 divided by IC50 of the parental cell line; for potency enhancement over EpoB, A2780/AD10: PgP-overexpressing cell line
[7] = system: drug-sensitive and drug-resistant human cancer cell lines; assay: Cytotoxicity assays across the panel of cell lines (summary in words); format: cell-based; settings: summary of Tables 1A-1C
[8] = system: KB-8511, Taxol-resistant (Pgp-overexpression) KB cell line; assay: 72 hour growth-inhibition (cytotoxicity) assay, KB-8511 cells
Protocol: as §1

[9] = Table 2, tested epothilone, unit from Table 1A note a, read-out: IC50, 1A9 (Table 2)
[10] = Table 2, tested epothilone, unit from Table 1A note a, read-out: IC50, 1A9/PTX10 (Table 2)
[11] = Table 2, tested epothilone, unit from Table 1A note a, read-out: IC50, 1A9/A8 (Table 2)
[12] = KB 3-1, 72 h, read-out: KB-31 IC50
[13] = 72 hour growth inhibition, sulforhodamine-B staining, mean of 3-5 independent experiments ± standard error of the mean, read-out: 1A9 IC50
[14] = 72 hour growth inhibition, sulforhodamine-B staining, mean of 3-5 experiments ± SEM, read-out: 1A9/PTX10 IC50
[15] = read-out: KB-8511 IC50, 72 hour growth inhibition, methylene blue staining, mean of 3-5 experiments ± SEM
[16] = 72 hour growth inhibition, sulforhodamine-B staining, mean of 3-5 experiments ± SEM, read-out: 1A9/A8 IC50
[17] = KB 3-1, read-out: IC50, KB-31 (Table 2)
[18] = read-out: IC50, KB-5811 (Table 2), Table 2, tested epothilone, cell line KB-5811, unit from Table 1A note a

CSc1nc(/C=C(\C)[C@@H]2C[C@@H]3O[C@]3(C)CCC[C@H](C)[C@H](O)[C@@H](C)C(=O)C(C)(C)[C@@H](O)CC(=O)O2)cs1 [Compound 3, reference compound]
IC50 ([1]; KB 3-1, Table 2, tested epothilone, unit from Table 1A note a, read-out: IC50, KB-31 (Table 2)): 0.11 nM | IC50 [2, 9]: 0.17 nM | RAEpoB (relative activity), 1A9 [2]: 1.8 | IC50 [3]: 0.07 nM | IC50 [4, 10]: 0.26 nM | RAEpoB (relative activity), 1A9/PTX10 [4]: 14.2 | IC50 [5, 11]: 1.3 nM | RAEpoB (relative activity), 1A9/A8 [5]: 5.0

C/C(=C\c1nccn1C)[C@@H]1C[C@@H]2O[C@]2(C)CCC[C@H](C)[C@H](O)[C@@H](C)C(=O)C(C)(C)[C@@H](O)CC(=O)O1 [Compound 8]
IC50 [6]: 760 nM | RRp (relative resistance), A2780/AD10 [6]: 1.4 | IC50 [1, 12]: 69.9 ± 5.31 nM | IC50 [2, 13]: 95.5 ± 13.4 nM | cytotoxicity across the tested cell lines, in words [7]: significantly lower activities | IC50 [4, 14]: > 750 nM | IC50 [8, 15]: > 1000 nM | IC50 [5, 16]: 242 nM | RRp (relative resistance), 1A9/A8 [5]: 2.5

C/C(=C\c1ncnn1C)[C@@H]1C[C@@H]2O[C@]2(C)CCC[C@H](C)[C@H](O)[C@@H](C)C(=O)C(C)(C)[C@@H](O)CC(=O)O1 [Compound 9]
IC50 [6]: > 750 nM | IC50 [1, 12]: 382 ± 49.4 nM | IC50 [2, 13]: 540 nM | cytotoxicity across the tested cell lines, in words [7]: significantly lower activities | IC50 [4, 14]: > 750 nM | IC50 [8, 15]: > 1000 nM | IC50 [5, 16]: 627 nM | RRp (relative resistance), 1A9/A8 [5]: 1.2

C/C(=C\c1ccn(C)n1)[C@@H]1C[C@@H]2O[C@]2(C)CCC[C@H](C)[C@H](O)[C@@H](C)C(=O)C(C)(C)[C@@H](O)CC(=O)O1 [Compound 14]
IC50 [6]: 25.5 ± 15.1 nM | RRp (relative resistance), A2780/AD10 [6]: 4.7 | potency enhancement over EpoB, A2780/AD10 [6]: 20 fold | IC50 [1, 12]: 0.19 ± 0.01 nM | IC50 [1, 17]: 0.19 nM | IC50 [2, 13]: 0.5 ± 0.3 nM | IC50 [2, 9]: 0.5 nM | RAEpoB (relative activity), 1A9 [2]: 2.0 | cytotoxicity across the tested cell lines, in words [7]: more potent cytotoxicities than EpoB across the board | IC50 [4, 14]: 1.7 ± 1.1 nM | IC50 [4, 10]: 1.7 nM | RRp (relative resistance), 1A9/PTX10 [4]: 3.4 | RAEpoB (relative activity), 1A9/PTX10 [4]: 4.6 | IC50 [8, 18]: 0.25 nM | IC50 [8, 15]: 0.25 ± 0.04 nM | IC50 [5, 16]: 0.8 ± 0.3 nM | IC50 [5, 11]: 0.8 nM | RRp (relative resistance), 1A9/A8 [5]: 1.6 | RAEpoB (relative activity), 1A9/A8 [5]: 12.5

C/C(=C\c1ccn(-c2ccccc2)n1)[C@@H]1C[C@@H]2O[C@]2(C)CCC[C@H](C)[C@H](O)[C@@H](C)C(=O)C(C)(C)[C@@H](O)CC(=O)O1 [Compound 15]
IC50 [6]: 6.4 nM | RRp (relative resistance), A2780/AD10 [6]: 107 | IC50 [1, 12]: 2.27 ± 0.16 nM | IC50 [2, 13]: 5.45 ± 3.7 nM | cytotoxicity across the tested cell lines, in words [7]: somewhat less active | IC50 [4, 14]: 25.8 ± 19.8 nM | RRp (relative resistance), 1A9/PTX10 [4]: 4.7 | IC50 [8, 15]: 1.62 ± 0.14 nM | IC50 [5, 16]: 4.8 ± 3.6 nM | RRp (relative resistance), 1A9/A8 [5]: 0.9

CSc1cc(/C=C(\C)[C@@H]2C[C@@H]3O[C@]3(C)CCC[C@H](C)[C@H](O)[C@@H](C)C(=O)C(C)(C)[C@@H](O)CC(=O)O2)nn1C [Compound 16]
IC50 [6]: 30.3 ± 17.7 nM | RRp (relative resistance), A2780/AD10 [6]: 8.2 | potency enhancement over EpoB, A2780/AD10 [6]: 4 fold | IC50 [1, 12]: 0.09 ± 0.01 nM | IC50 [1, 17]: 0.09 nM | potency increase as compared to EpoB, KB cell lines ([1]; KB cell lines (KB-31 and KB-8511 together)): 3-5 fold | potency (activity) increase as compared to EpoB, 1A9 ([2]; 1A9 parental cell line): 17 fold and 16.5 fold | IC50 [2, 13]: 0.06 ± 0.04 nM | IC50 [2, 9]: 0.06 nM | RAEpoB (relative activity), 1A9 [2]: 16.5 | cytotoxicity across the tested cell lines, in words [7]: the most potent of all compounds tested; also recorded: outperformed EpoB in all five cancer cell lines tested | IC50 [4, 14]: 0.1 nM | IC50 [4, 10]: 0.1 nM | RRp (relative resistance), 1A9/PTX10 [4]: 1.7 | potency increase as compared to EpoB, 1A9/PTX10 ([4]; Taxol-resistant cell line): 78 fold and 78.0 fold | RAEpoB (relative activity), 1A9/PTX10 [4]: 78.0 | IC50 [8, 18]: 0.14 nM | IC50 [8, 15]: 0.14 ± 0.01 nM | potency (activity) increase as compared to EpoB, 1A9/A8 ([5]; EpoA-resistant cell line): 17 fold and 16.7 fold | IC50 [5, 16]: 0.6 ± 0.5 nM | IC50 [5, 11]: 0.6 nM | RRp (relative resistance), 1A9/A8 [5]: 10.0 | RAEpoB (relative activity), 1A9/A8 [5]: 16.7

C/C(=C\C#N)[C@@H]1C[C@@H]2O[C@]2(C)CCC[C@H](C)[C@H](O)[C@@H](C)C(=O)C(C)(C)[C@@H](O)CC(=O)O1 [Compound 21]
IC50 [6]: > 150 nM | IC50 [1, 12]: 346 ± 10.5 nM | IC50 [2, 13]: > 750 nM | cytotoxicity across the tested cell lines, in words [7]: not found active; also recorded: devoid of any significant cytotoxicity against any of the cell lines tested | IC50 [4, 14]: > 750 nM | IC50 [8, 15]: > 1000 nM | IC50 [5, 16]: > 750 nM
